In patent publication US20050176773A1, “Antiproliferative 2-(heteroaryl)-aminothiazole compounds and pharmaceutical compositions, and method for their use” (AGOURON PHARMACEUTICALS, INC., priority 2003, published 2005):

Assays:
[1] = biological target: T1, human CDK4 / truncated (1-264) cyclin D3 complex (Homo sapiens, UniProt P11802); assay: Inhibition of CDK4/Cyclin D retinoblastoma kinase activity; format: biochemical; conditions: Rb fragment substrate, enzyme complex 5 nM
T1 construct: made in house; host or cells: insect cells (baculovirus co-infection)
Procedure: Inhibition of CDK4/Cyclin D Retinoblastoma Kinase Activity:
A complex of human CDK4 and genetically truncated (1-264) cyclin D3 was purified using traditional biochemical chromatographic techniques from insect cells that had been co-infected with the corresponding baculovirus expression vectors (see e.g., Meijer, L.; Kim, S.-H. In Methods Enzymol. 1997, 283, 113-128). The enzyme complex (5 nM) was assayed with 0.3-0.5 μg of purified recombinant retinoblastoma protein fragment (Rb) as a substrate. The engineered Rb fragment (residues 386-928 of the native retinoblastoma protein; 62.3 kDa) contains the majority of the phosphorylation sites found in the native 106-kDa protein, as well as a tag of six histidine residues for ease of purification. Phosphorylated Rb substrate was captured by microfiltration on a nitrocellulose membrane and quantified using a phosphorimager as described above. For measurement of tight-binding inhibitors, the assay duration was extended to 60 minutes, during which the time dependence of product formation was linear and initial rate conditions were met.

[2] = biological target: T2, CDK2 / proteolyzed cyclin A complex (Homo sapiens, UniProt P24941); assay: Inhibition of CDK2/Cyclin A retinoblastoma kinase activity; format: biochemical; conditions: Rb fragment substrate, CDK2 at 10 nM or 19 nM
T2 construct: made in house; host or cells: CDK2: insect cells (baculovirus); cyclin A: E. coli, then limited proteolysis
Excerpt: Inhibition of CDK2/Cyclin A Retinoblastoma Kinase Activity:
CDK2 was purified using published methodology (Rosenblatt, J.; De Bondt, H.; Jancarik, J.; Morgan, D. O.; Kim, S. H. J. Mol. Biol. 1993, 230, 1317-1319) from insect cells that had been infected with a baculovirus expression vector. Cyclin A was purified from E. coli cells expressing full-length recombinant cyclin A, and a truncated cyclin A construct was generated by limited proteolysis and purified as described previously (Jeffrey, P. D.; Russo, A. A.; Polyak, K.; Gibbs, E.; Hurwitz, J.; Massague, J.; Pavletich, N. P. Nature 1995, 376, 313-320.). A complex of CDK2 and proteolyzed cyclin A was prepared and purified by gel filtration. The substrate for this assay was the same Rb substrate fragment used for the CDK4 assays, and the methodology of the CDK2/delta cyclin A and the CDK4/delta cyclin D3 assays was essentially the same, except that CDK2 was present at 10 nM or 19 nM. The duration of the assay was 60 or 75 minutes, during which the time dependence of product formation was linear and initial rate conditions were met.

HCT-116 cells = assay: Inhibition of cell growth, MTT tetrazolium salt assay; format: cell-based; conditions: Homo sapiens, 144 h, four to six days incubation; for IC50: first value of the cell, read-out: HCT116 IC50; for IC90: second value of the cell, 90% inhibition of growth, read-out: HCT116 IC90
Procedure: Inhibition of Cell Growth: Assessment of Cytotoxicity:
Inhibition of cell growth was measured using the tetrazolium salt assay, which is based on the ability of viable cells to reduce 3-(4,5-dimethylthiazol-2-yl)-2,5-[2H]-diphenyltetrazolium bromide (MTT) to formazan (Mosmann, T. J. Immunol. Methods 1983, 65, 55-63). The water-insoluble purple formazan product was then detected spectrophotometrically. HCT-116 cells were grown in 96-well plates. Cells were plated in the appropriate medium at a volume of 135 μl/well in either McCoy's 5A Medium. Plates were incubated for 4 hours before addition of inhibitor compounds. Different concentrations of inhibitor compounds were added in 0.5% (v/v) dimethylsulfoxide (15 μL/well), and cells were incubated at 37° C. (5% CO2) for four to six days (depending on cell type). At the end of the incubation, MTT was added to a final concentration of 0.2 mg/mL, and cells were incubated for 4 hours more at 37° C. After centrifugation of the plates and removal of medium, the absorbance of the formazan (solubilized in dimethylsulfoxide) was measured at 540 nm. The concentration of inhibitor compound causing 50% (IC50) or 90% (IC90) inhibition of growth was determined from the linear portion of a semi-log plot of inhibitor concentration versus percentage inhibition. All results were compared to control cells treated only with 0.5% (v/v) dimethylsulfoxide.

T1 sequence (P11802 whole entry, the tested form may be a part): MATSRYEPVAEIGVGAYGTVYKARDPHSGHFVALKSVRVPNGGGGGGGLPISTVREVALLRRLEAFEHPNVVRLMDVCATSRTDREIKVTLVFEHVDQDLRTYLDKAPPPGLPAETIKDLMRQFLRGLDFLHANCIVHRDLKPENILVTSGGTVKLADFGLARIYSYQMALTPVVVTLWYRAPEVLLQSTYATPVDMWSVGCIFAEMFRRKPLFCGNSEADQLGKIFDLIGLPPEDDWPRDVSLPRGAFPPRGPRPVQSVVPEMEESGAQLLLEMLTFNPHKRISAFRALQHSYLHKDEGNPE
T1 sequence (P30281 1-264 partner limits assumed): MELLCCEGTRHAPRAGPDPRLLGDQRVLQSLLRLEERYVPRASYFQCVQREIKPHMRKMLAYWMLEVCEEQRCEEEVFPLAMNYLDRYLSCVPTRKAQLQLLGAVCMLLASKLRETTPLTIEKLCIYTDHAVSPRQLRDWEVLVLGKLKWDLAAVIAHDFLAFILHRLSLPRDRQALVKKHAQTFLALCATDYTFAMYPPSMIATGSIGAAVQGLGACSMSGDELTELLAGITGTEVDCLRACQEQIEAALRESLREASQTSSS

| Ki [1] [nM] | Ki [2] [nM] | IC50 (HCT-116 cells) [nM] | IC90 (HCT-116 cells) [nM] | Structure (SMILES) |
| --- | --- | --- | --- | --- |
| 1.3 | 8.6 | 2.5 | 8.5 | CN(C)C(C)(C)CNC(=O)c1ccc(Nc2nc(N)c(C(=O)c3c(F)cccc3F)s2)nc1 [Example 1L] |
| 120 | 400 | 120 | 280 | C[C@H](CN(C)C)NC(=O)c1ccc(Nc2nc(N)c(C(=O)c3c(F)cccc3F)s2)cn1 [Example C1B, 5-[4-Amino-5-(2,6-difluoro-benzoyl)-thiazol-2-ylamino]-pyridine-2-carboxylic Acid (2-Dimethylamino-1R-methyl-ethyl)-amide, reference compound] |
| 2.3 | 35 | 70 | 250 | CNC(C)(C)CNC(=O)c1ccc(Nc2nc(N)c(C(=O)c3c(F)cccc3F)s2)nc1 [Example 1M] |
| 3.3 | 21 | 210 | 700 | CNCCNC(=O)c1ccc(Nc2nc(N)c(C(=O)c3c(F)cccc3F)s2)nc1 [Example 3A] |
| 1.4 | 9.8 | 8.8 | 21 | CN(C)CCNC(=O)c1ccc(Nc2nc(N)c(C(=O)c3c(F)cccc3F)s2)nc1 [Example 1K, 6-[4-Amino-5-(2,6-difluoro-benzoyl)-thiazol-2-ylamino]-N-(2-dimethylamino-ethyl)-nicotinamide] |
| 1.1 | 32 | 70 | 180 | CN1CCN(c2ccc(Nc3nc(N)c(C(=O)c4c(F)cccc4F)s3)nc2)CC1 [Example 2A, {4-Amino-2-[5-(4-methyl-piperazin-1-yl)-pyridin-2-ylamino]-thiazol-5-yl}-(2,6-difluoro-phenyl)-methanone] |
| 37 | 320 | 230 | 650 | CN1CCC[C@H]1CNC(=O)c1ccc(Nc2nc(N)c(C(=O)c3c(F)cccc3F)s2)cn1 [Example C1A, 5-[4-Amino-5-(2,6-difluoro-benzoyl)-thiazol-2-ylamino]-pyridine-2-carboxylic acid (1-methyl-pyrrolidin-2S-ylmethyl)-amide, reference compound] |

Further lines, the molecule ahead of its results:

| Structure (SMILES) | Ki [1] [nM] | Ki [2] [nM] | IC50 (HCT-116 cells) [nM] | IC90 (HCT-116 cells) [nM] |
| --- | --- | --- | --- | --- |
| Nc1nc(Nc2ccc(C(=O)NCc3ccccn3)cn2)sc1C(=O)c1c(F)cccc1F [Example 1C, 6-[4-Amino-5-(2,6-difluoro-benzoyl)-thiazol-2-ylamino]-N-pyridin-2-ylmethyl-nicotinamide] | 12 | 7.2 | 79 | 210 |
| Nc1nc(Nc2ccc(C(=O)Nc3ccccn3)cn2)sc1C(=O)c1c(F)cccc1F [Example 1G, 6-[4-Amino-5-(2,6-difluoro-benzoyl)-thiazol-2-ylamino]-N-pyridin-2-yl-nicotinamide] | 35 | 18 | 170 | 36000 |
| CN1CCC[C@H]1CNC(=O)c1ccc(Nc2nc(N)c(C(=O)c3c(F)cccc3F)s2)nc1 [Example 1A] | 0.77 | 7.3 | 7 | 170 |
| C[C@H](CN(C)C)NC(=O)c1ccc(Nc2nc(N)c(C(=O)c3c(F)cccc3F)s2)nc1 [Example 1I, 6-[4-Amino-5-(2,6-difluoro-benzoyl)-thiazol-2-ylamino]-N-(2-dimethylamino-1R-methyl-ethyl)-nicotinamide] | 0.61 | 4.4 | 2.6 | 5.7 |
| Nc1nc(Nc2ccc(C(=O)NCCN3CCCCC3)cn2)sc1C(=O)c1c(F)cccc1F [Example 1F, 6-[4-Amino-5-(2,6-difluoro-benzoyl)-thiazol-2-ylamino]-N-(2-piperidin-1-yl-ethyl)-nicotinamide] | 4.3 | 18 | 17 | 40 |
| Nc1nc(Nc2ccc(C(=O)NCc3cccnc3)cn2)sc1C(=O)c1c(F)cccc1F [Example 1D, 6-[4-Amino-5-(2,6-difluoro-benzoyl)-thiazol-2-ylamino]-N-pyridin-3-ylmethyl-nicotinamide] | 6.6 | 5.7 | 410 | > 5000 |
| Nc1nc(Nc2ccc(C(=O)Nc3ccccc3)cn2)sc1C(=O)c1c(F)cccc1F [Example 1E, 6-[4-Amino-5-(2,6-difluoro-benzoyl)-thiazol-2-ylamino]-N-phenyl-nicotinamide] | 18 | 17 | 180 | 400 |
| CCN1CCCC1CNC(=O)c1ccc(Nc2nc(N)c(C(=O)c3c(F)cccc3F)s2)nc1 (centres unmarked) [Example 1H, 6-[4-Amino-5-(2,6-difluoro-benzoyl)-thiazol-2-ylamino]-N-(1-ethyl-pyrrolidin-2-ylmethyl)-nicotinamide] | 7.1 | 43 | 32 | 60 |
| CN(C)C1(CNC(=O)c2ccc(Nc3nc(N)c(C(=O)c4c(F)cccc4F)s3)nc2)CCC1 [Example 1B, 6-[4-Amino-5-(2,6-difluoro-benzoyl)-thiazol-2-ylamino]-N-(1-dimethylaminocyclobutylmethyl)-nicotinamide] | 2.7 | 39 | 5.8 | 20 |
| Nc1nc(Nc2ccc(C(=O)NCCN3CCCC3)cn2)sc1C(=O)c1c(F)cccc1F [Example 1J, 6-[4-Amino-5-(2,6-difluoro-benzoyl)-thiazol-2-ylamino]-N-(2-pyrrolidin-1-yl-ethyl)-nicotinamide] | 2.2 | 11 | 17 | 50 |
